Entries after “also recorded” stand apart in the source; their conditions may differ.
Columns and labels:
[1] = test system: facial nerve; experiment: Whisker movement after unilateral facial nerve compression; type: in vivo; conditions: rats, versus control
[2] = test system: hair follicles and sebaceous glands; experiment: Histology of adenexal structures and sebaceous cell volume after skin biopsy and topical treatment; type: in vivo, mice; conditions: topical daily, 8 days
Protocol: (A) Eight days following full-thickness skin biopsies and daily treatment with either vehicle or a 1 μM solution of GM-284, the original biopsy sites were rebiopsied and stained with hemotoxylin and eosin. […] Micrographs from the two treatment groups were scanned, and the volume of sebaceous cells was measured in voxels (n=>300 cells per treatment group). The resulting data were binned by 3000-voxel increments.
Using the topical-application-following-skin-biopsy paradigm detailed above, the lateral aspects of the original lesions were rebiopsied 8 days after the original lesions. The tissues were immersion-fixed, dehydrated through step gradients of alcohols, stained with hemotoxylin and eosin, and mounted for microscopic analysis, all following standard protocols. It is known that skin wounds in rodents heal inwards, from the perimeter, converging at a central point (Cohen, Stress and wound healing. Acta Anat. (Basel), 103:134–41, 1979). Therefore, the lateral edges of the original lesions were selected for analysis because these areas of tissue had the greatest opportunity to regenerate under the experimental conditions.
The volumes of the cells of the sebaceous glands were determined by scanning micrographs taken from animals treated with either GM-284 or vehicle for 8 days, and measuring cell size with the NIH Image program. […] There was an absence of smaller sebaceous cells in the GM-284 treatment group, and an absence of larger cells in the vehicle-treated group. […] Thus, given the cellular expansion in all three of these dermal compartments, it is likely that GM-284 acts at the level of the common stem cell.

[3] = test system: neuregulin-α; experiment: Neuregulin-α expression in keratinocytes of unwounded skin in situ; type: in vivo
Source text: FIG. 8 illustrates that GM-284 alters neuregulin gene expression. […] As expected, unwounded, vehicle-treated keratinocytes strongly express neuregulin-α (top panel).
As expected, unwounded, vehicle-treated keratinocytes strongly expressed neuregulin-α (FIG. 8, top panel).

[4] = test system: peripheral nerves; experiment: Peripheral nerve regeneration after mechanical transection; type: in vivo; conditions: mechanical transection of peripheral nerves; earlier studies of the inventor
[5] = test system: human-foreskin keratinocytes; experiment: Proliferation of cultured human-foreskin keratinocytes; type: cell-based
Protocol: Human keratinocytes were thawed, then either grown in the presence of increasing concentrations of GM-284, or grown in 5 μM FeSO4 as a positive control.
As detailed above, keratinocyte proliferation is influenced by a number of factors, including innervation (Hsieh and Lin, Modulation of keratinocyte proliferation by skin innervation. J. Invest. Dermatol., 113:579–86, 1999) and growth-factor treatment (Castagnino et al., Neu differentiation factor/heregulin induction by hepatocyte and keratinocyte growth factors. Oncogene, 19:640–48, 2000; and reviewed by Werner and Smola, Paracrine regulation of keratinocyte proliferation and differentiation. Trends Cell Biol., 11: 143–46, 2001). Thus, by culturing human-foreskin keratinocytes with increasing concentrations of GM-284, the inventor investigated the possibility that GM-284 was able to influence keratinocyte growth. […] This type of drug-dependent inhibition is consistent with the inventor's previous observation that a higher concentration of GM-284 blocks gene expression that is induced at a lower drug concentration (data not shown).

[6] = molecular target: T1, recombinant FKBP52 (Homo sapiens, UniProt Q02790); experiment: Binding affinity for recombinant FKBP52 by solution-phase tryptophan fluorescence (QTFS); conditions: read-out: disassociation constant (kd), binding affinity for recombinant FKBP52
T1 sequence (Q02790 1-459): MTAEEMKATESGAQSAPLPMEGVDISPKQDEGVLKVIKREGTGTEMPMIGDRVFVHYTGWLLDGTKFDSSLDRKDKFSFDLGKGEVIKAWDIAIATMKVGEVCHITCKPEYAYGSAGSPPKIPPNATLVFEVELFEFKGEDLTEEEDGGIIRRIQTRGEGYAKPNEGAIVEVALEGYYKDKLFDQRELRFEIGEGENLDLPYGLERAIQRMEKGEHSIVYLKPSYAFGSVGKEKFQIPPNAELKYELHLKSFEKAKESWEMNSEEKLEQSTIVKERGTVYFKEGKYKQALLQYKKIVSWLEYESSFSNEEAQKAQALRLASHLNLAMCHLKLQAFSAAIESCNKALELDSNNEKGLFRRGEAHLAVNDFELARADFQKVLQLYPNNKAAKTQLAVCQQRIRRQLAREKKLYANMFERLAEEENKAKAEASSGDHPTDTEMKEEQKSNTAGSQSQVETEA
Source text: Accordingly, in one embodiment of the present invention, the immunophilin ligand is FK506 or an FK506 analogue or derivative. As used herein, an “FK506 derivative” is a chemical substance derived from FK506, either directly or by modification, truncation, or partial substitution. FK506 and its analogues and derivatives may be produced synthetically. The FK506 derivative for use in the present invention may be nonimmunosuppressive. In a preferred embodiment of the present invention, the nonimmunosuppressive FK506 derivative is GM-284. This novel compound is a small molecule that effects transcriptional change in Schwann cells, and promotes wound healing and regeneration of epithelial tissue and nervous tissue, as described below. […] The structure of GM-284 is depicted in FIG. 9.

[7] = test system: surgical wounds; experiment: Healing of surgical wounds under daily gavage (systemic treatment); type: in vivo, mice
Source text: During these studies, the inventor serendipitously observed that the surgical wounds of animals treated systemically with GM-284 appeared dramatically different from those of either vehicle- or FK506-treated mice. […] Given the biochemical properties of GM-284, and the clinical uses of FK506 as a topical medication, the inventor investigated the ability of GM-284 to act as a healing accelerant when applied topically to full-thickness skin biopsies in mice.
These studies required surgical exposure of the right lower quadrant of all study animals. Following exposure of the sciatic nerve from the sciatic notch to the knee, and manipulation of the nerve, the muscle and overlaying skin were closed with suture material. Each animal was subsequently treated with a daily gavage of either GM-284 (5 mg/kg), FK506 (5 mg/kg), or methylcellulose vehicle alone.

[8] = test system: nerve fibers of injured skin; experiment: Reinnervation and remyelination of healing skin (MBP and neuron-specific β-tubulin staining); type: in vivo, mouse; conditions: 8 days of treatment after biopsy
Source text: FIG. 6 illustrates that GM-284 induces rapid reinnervation of injured skin. (A) The inventor examined innervation of surgically damaged skin (biopsy) following 8 days of treatment with either GM-284 or vehicle. The skin sections were stained with an antibody that recognizes myelin basic protein (MBP). […] In contrast, healing skin which had been treated with vehicle alone still had no myelinated fibers, nor did the Langerhans cells appear to have any organization relative to the epidermis (right panel). (B) Unmyelinated fibers also innervate the skin, where the fibers extend into the epidermis. […] No such fibers were found in the vehicle-treated controls.
As shown above, GM-284 induces rapid healing of wounds; it does so, in part, by influencing the proliferation of cells within the dermis and epidermis. In addition, this compound has profound effects on the regeneration of peripheral nerves. The inventor has previously shown that, following crushing-nerve injury, GM-284 enhances nerve regeneration, acting on both the axon and the Schwann cell (data not shown). To investigate whether GM-284 also enhances sensory-nerve regeneration into skin following wounding, the inventor examined innervation of skin biopsies after 8 days of treatment with either GM-284 or vehicle. […]

[9] = test system: 5-mm skin biopsies; experiment: Closure of 5-mm skin biopsy wounds under daily topical treatment; type: in vivo, mice
Protocol: The foregoing results also raised the possibility that GM-284 might show similar effects if administered topically, directly to the surgical site. To investigate this possibility, 10 retired breeders—5 male mice and 5 female mice—were prepared for surgery, and were subjected to 5-mm skin biopsies using a disposable biopsy punch. After achieving hemostasis, the wounds were treated immediately with topical application of either GM-284 or vehicle, or received no treatment at all. The treatment was repeated daily.
During the experimental period, the wounds were photographed daily, and the photographs were scanned for […]. The open area of each wound was quantified using an image-analysis program, NIH Image.

[10] = test system: epidermis of intact skin; experiment: Topical treatment of intact shaved skin, with recovery period; type: in vivo
Source text: Either GM-284 or vehicle was applied to the dorsal skin on both sides of the animals, daily for 2 weeks. At that time, a 5-mm biopsy was taken from only one side, and all treatment was withheld. After an additional 2-week recovery period, a 5-mm biopsy was taken from the contralateral, intact side. […] 20×magnification
In order to test these effects, the inventor shaved the dorsal fur from over the hindquarters, bilaterally, and tattooed ˜5-mm circles on the skin. Either GM-284 or vehicle was applied daily, to both sides of the animals, for 2 weeks. After that time, a 5-mm biopsy was taken from only one side of each animal, and all treatment was withheld. After an additional 2-week “recovery period”, a 5-mm biopsy was taken from the intact side of each animal.

[11] = test system: epidermis; experiment: Epidermal thickness after full-thickness skin biopsy and topical treatment; type: in vivo, mice; conditions: topical daily for 8 days in DMSO-based vehicle, rebiopsy, H&E
Protocol: FIG. 4 illustrates that topical treatment with GM-284 increases epidermal thickness in vivo. Eight days after full-thickness skin biopsies and daily treatment with vehicle, FK506, or GM-284, the original biopsy sites were rebiopsied and stained with hemotoxylin and eosin.
To examine this possibility, 5-mm, full-skin thickness biopsies were taken from the hindquarters of both male and female ICR retired breeders. The wounds were treated daily, for 8 days, with topical administration of either the DMSO-based vehicle, or FK506 or GM-284 in the vehicle. Thereafter, the original biopsy site was rebiopsied. […] In contrast, the epidermis of the GM-284-treated animals was much thicker, and appeared to be much more cellular, than the epidermis of animals under the other two conditions (FIG. 4, panel c).

How did the “restoration of whisker movement” value [1] turn out when `CCC(C)(C)C(=O)C(=O)N1CCC[C@H]1c1nnc([C@@H]2CCCN2C(=O)C(=O)C(C)(C)CC)o1` [GM-284] was run?
The value was “more rapidly restore whisker movement compared to control”.

What about the “number of hair follicles or sebaceous glands” value ([2]; 1 μM solution) of the same molecule?
Its value is “no net increase in the number of hair follicles”.

What about the “hair follicle size and cellularity (FIG. 5A)” value ([2]; 1 μM solution, versus vehicle) of the same molecule?
The value was “large increase in the width and cellularity of the basal aspects of the hair follicles; also recorded: overall increase in hair-follicle size”.

What about the “sebaceous gland size and cell number (FIG. 5A)” value ([2]; 1 μM solution, versus vehicle) of the same molecule?
The value was “much rounder, larger, and fuller than those of the controls; also recorded: increase in the size of sebaceous glands”.

What about the “sebaceous cell volume, binned by 3000-voxel increments (FIG. 5B)” value ([2]; >300 cells per group, versus vehicle) of the same molecule?
Its value is “marked shift to the right; also recorded: absence of cells smaller than 3000 voxels”.

And the “keratinocyte neuregulin-α expression (FIG. 8)” value ([3]; 2 weeks of topical treatment, unwounded skin)?
Its value is “completely downregulated neuregulin-α expression”.

What about the “keratinocyte neuregulin-α expression after recovery” value ([3]; skin allowed to recover for 2 weeks, data not shown) of the same molecule?
Its value is “keratinocyte expression of neuregulin-α was restored”.

And the “axonal regeneration and myelination after nerve transection” value [4]?
The value was “enhances axonal regeneration and induces hypermyelination”.

And the “increase in rate of keratinocyte proliferation” value ([5]; 1 μM, after 14 days of treatment)?
Its value is “more than 150%”.

And the “proliferative index of keratinocytes (FIG. 3)” value ([5]; 1 μM, after first passage and reseeding)?
Its value is “doubling of the proliferative index”.

What about the “keratinocyte growth rate at 10 μM compared with 1 μM” value ([5]; 10 μM) of the same molecule?
Its value is “completely ablated the pro-proliferative activity”.

And the Kd [6]?
The Kd was 139 nM.

What about the “appearance and closure of surgical wounds” value ([7]; daily gavage 5 mg/kg, skin and muscle entered, blinded observer) of the same molecule?
The value was “less erythemia and more rapid closure”.

And the “rate of wound healing versus controls” value ([7]; mice treated systemically, controls vehicle or FK506)?
The value was “healed at approximately twice the rate as the controls”.

What about the “healing of surgical wounds, only the skin entered” value ([7]; muscle and overlying fascia left intact) of the same molecule?
Its value is “same improved healing characteristics”.

And the “regeneration of myelinated (MBP-positive) fibers in injured skin (FIG. 6A)” value [8]?
The value was “regained its pre-injury histology, with new, myelinated fibers running parallel to the epidermis”.

What about the “regeneration of unmyelinated fibers into the epidermis (FIG. 6B)” value [8] of the same molecule?
The value was “promotes regeneration of naked axons into the epidermis”.

And the “granulation of wound edges” value ([9]; topical daily, D3 and D9)?
Its value is “better granulated than the controls”.

And the “closure rate, open wound area by NIH Image (FIG. 2)” value ([9]; topical daily, day 5)?
Its value is “large difference in the closure rates”.

And the “open wound size versus control groups, NIH Image (FIG. 2)” value ([9]; topical daily, day 9)?
Its value is “approximately one-third the size of those of the control groups”.

What about the “open wound size versus control groups, NIH Image (FIG. 2)” value ([9]; topical daily, day 9, listed as GM284) of the same molecule?
The value was “approximately as completely healed as that of the two control groups”.

And the “rate of wound closure, open wound area by NIH Image” value ([9]; topical daily, third treatment day)?
Its value is “closed approximately twice as fast as the control groups”.

And the “wound closure versus control groups (FIG. 1)” value ([9]; topical, once daily, day 3)?
Its value is “showed improvement by 3 days; also recorded: significantly more closed than the control groups”.

And the “wound closure (FIG. 1)” value ([9]; topical, once daily, day 9)?
The value was “virtually closed by the ninth day”.

What about the “epidermal hypertrophy after recovery period (FIG. 7, lower)” value ([10]; 2 weeks treatment, then 2 weeks without treatment) of the same molecule?
Its value is “completely reversed”.

And the “epidermal thickness of intact skin (FIG. 7, top)” value ([10]; topical daily for 2 weeks)?
Its value is “resulted in epidermal hypertrophy”.

What about the “epidermal thickness versus vehicle (FIG. 4)” value [11] of the same molecule?
The value was “marked increase in epidermal thickness; also recorded: much thicker”.

From patent US7189746B2, “Methods for promoting wound healing” (GliaMed, Inc., priority 2002, dated 2007)
